Strand notation (5' to 3'): a small letter for the sugar, then the base; units joined by * are phosphorothioate-linked, units joined directly phosphodiester-linked; [ ] holds rarer units or linkages, { } end groups; capitals alone tell only the bases. e = 2'-O-(2-methoxyethyl) (MOE); [5mC] = 5-methylcytosine; d = 2'-deoxy (DNA)
Tests used:
rat JNK2 mRNA = experiment: Northern assay of rat JNK2 (p54a) mRNA in A10 aortic smooth muscle cells; assay type: cell-based; parameters: inhibition of rat JNK2 mRNA levels / % INHIBITION: concentration or dose not given beside the values; conditions: rat JNK2 (p54a) mRNA in A10 cells; for % EXPRESSION: relative to LIPOFECTIN-only control
Method: In order to study the role of JNK proteins in animal models, oligonucleotides targeted to the genes encoding JNK1, JNK2 and JNK3 of Rattus norvegicus were prepared. These oligonucleotides are 2′-methoxyethoxy, phosphodiester/2′-hydroxyl, phosphorothioate/2′-methoxyethoxy, phosphodiester “gapmers” in which every cytosine residue is 5-methylcytosine (m5c). These antisense compounds were synthesized according to the methods of the disclosure. Certain of these oligonucleotides are additionally specifically hybridizable to JNK genes from other species as indicated herein. The oligonucleotides described in this Example were tested for their ability to modulate rat JNK mRNA levels essentially according to the methods described in the preceding Examples, with the exceptions that the cell line used was rat A10 aortic smooth muscle cells (ATCC No. ATCC CRL-1476) and the probes used were specific for rat JNK1, JNK2 or JNK3 (see infra). A10 cells were grown and treated with oligonucleotides essentially as described by (Cioffi et al. Mol. Pharmacol., 1997, 51, 383).
These antisense compounds were tested for their ability to modulate levels of p54? (JNK1) and p54a (JNK2) mRNA in A10 cells via Northern assays. Due to the high degree of sequence identity between the human and rat genes, radiolabeled human JNK1 (Example 3) and JNK2 (Example 4) cDNAs functioned as specific probes for the rat homologs.
These antisense compounds were tested for their ability to modulate levels of p54a (JNK2) mRNA in A10 cells using the radiolabeled human JNK2 cDNA as a probe as described supra. Oligonucleotides showing levels of inhibition from ≧ about 60% to about 100% of rat JNK2 mRNA levels include ISIS Nos. 18254, 18255, 18257, 18258, 18259, 18260 and 18265 (SEQ ID NOS: 125, 126, 128, 129, 130, 131 and 136, respectively). These oligonucleotides are preferred embodiments of the invention for modulating rat JNK2 expression. […] These oligonucleotides are thus more preferred embodiments of the invention for modulating rat JNK2 expression. ISIS 18259 (SEQ ID NO: 130) was chosen for use in further studies (infra).

JNK2 mRNA = experiment: Northern assay of JNK2 mRNA expression in A549 cells; assay type: cell-based, human; conditions: for % EXPRESSION: relative to LIPOFECTIN-only control
Method: In order to evaluate the activity of potential JNK-modulating oligonucleotides, human lung carcinoma cell line A549 (American Type Culture Collection, Rockville, Md. No. ATCC CCL-185) cells or other cell lines as indicated in the Examples, were grown and treated with oligonucleotides or control solutions as detailed below. After harvesting, cellular extracts were prepared and examined for specific JNK mRNA levels or JNK protein levels (i.e., Northern or Western assays, respectively). In all cases, “% expression” refers to the amount of JNK-specific signal in an oligonucleotide-treated cell relative to an untreated cell (or a cell treated with a control solution that lacks oligonucleotide), and “% inhibition” is calculated as
100%−% Expression =% Inhibition.
Northern Assays: The mRNA expression of each JNK protein was determined by using a nucleic acid probe specifically hybridizable thereto. Nucleic acid probes specific for JNK1, JNK2 and JNK3 are described in Examples 3, 4 and 5, respectively. The probes were radiolabelled by means well known in the art (see, e.g., Short Protocols in Molecular Biology, 2nd Ed., Ausubel et al., Eds., John Wiley & Sons, New York, 1992, pages 3-11 to 2-3-44 and 4-17 to 4-18; Ruth, Chapter 6 In: Methods in Molecular Biology, Vol. 26: Protocols for Oligonucleotide Conjugates, Agrawal, ed., Humana Press Inc., Totowa, N.J., 1994, pages 167-185; and Chapter 10 In: Molecular Cloning: A Laboratory Manual, 2nd Ed., Sambrook et al., Eds., pages 10.1-10.70). The blots were stripped and reprobed with a ^32P-labeled glyceraldehyde 3-phosphate dehydrogenase (G3PDH) probe (Clontech Laboratories, Inc., Palo Alto, Calif.) in order to confirm equal loading of RNA and to allow the levels of JNK transcripts to be normalized with regard to the G3PDH signals.
A549 cells were grown in T-75 flasks until 80-90% confluent. At this time, the cells were washed twice with 10 mL of media (DMEM), followed by the addition of 5 mL of DMEM containing 20 μg/mL of LIPOFECTIN™ (i.e., 1:1 (w/w) DOTMA/DOPE, Life Technologies, Gaithersburg, Md.; DOTMA=N-[1-(2,3-dioleyoxy)propyl]-N,N,N-trimethylammonium chloride; DOPE=dioleoyl phosphatidylethanolamine). The oligonucleotides were added from a 10 μM stock solution to a final concentration of 400 nM, and the two solutions were mixed by swirling the flasks. As a control, cells were treated with LIPOFECTIN™ without oligonucleotide under the same conditions and for the same times as the oligonucleotide-treated samples. After 4 hours at 37° C., the medium was replaced with fresh DMEM containing 10% serum. The cells were allowed to recover for 18 hours. Total cellular RNA was then extracted in guanidinium, subject to gel electrophoresis and transferred to a filter according to techniques known in the art (see, e.g., Chapter 7 In: Molecular Cloning: A Laboratory Manual, 2nd Ed., Sambrook et al., Eds., pages 7.1-7.87, and Short Protocols in Molecular Biology, 2nd Ed., Ausubel et al., Eds., John Wiley & Sons, New York, 1992, pages 2-24 to 2-30 and 4-14 to 4-29). Filters were typically hybridized overnight to a probe specific for the particular JNK gene of interest in hybridization buffer (25 mM KPO4, pH 7.4; 5×SSC; 5× Denhardt's solution, 100 μg/ml Salmon sperm DNA and 50% formamide) (Alahari et al., Nucl. Acids Res., 1993, 21, 4079). This was followed by two washes with 1×SSC, 0.1% SDS and two washes with 0.25×SSC, 0.1% SDS. Hybridizing bands were visualized by exposure to X-OMAT AR film and quantitated using a PHOSPHORIMAGER™ essentially according to the manufacturer's instructions (Molecular Dynamics, Sunnyvale, Calif.)
B. JNK2-specific probes: In initial screenings of a set of oligonucleotides derived from the JNK2 sequence (Table 9) for biological activity, a cDNA clone of JNK2 (Kallunki et al., Genes & Development, 1994, 8, 2996) was radiolabeled and used as a JNK2-specific probe in Northern blots. […]

[1] = JNK2 mRNA dose response, 100 nM
[2] = JNK2 mRNA dose response, 200 nM
[3] = JNK2 mRNA dose response, 400 nM
[4] = JNK2 mRNA time course, t=0 h after 4 hour treatment
[5] = JNK2 mRNA, A549 cells, 400 nM oligonucleotide
[6] = JNK2 mRNA, chemically modified oligonucleotides, dose 100 nM
[7] = JNK2 mRNA, chemically modified oligonucleotides, dose 400 nM
[8] = JNK2 mRNA, A549 cells, 400 nM oligonucleotide, 100% - % expression

10260 (antisense eAeTe[5mC]eTeG*d[5mC]*dG*dA*dG*dG*dT*dT*dT*d[5mC]*dA*eTe[5mC]eGeGe[5mC]) [compound 10260]
% INHIBITION (rat JNK2 mRNA): 59%
% EXPRESSION (rat JNK2 mRNA): 41%

12560 (antisense GTCCGGGCCAGGCCAAAGTC; DNA, all phosphorothioate, methylation of C not given here) [compound 12560]
Normalized % Control (JNK2 mRNA; JNK2 mRNA dose response, 50 nM): 68.1%
Normalized % Control (JNK2 mRNA; [1]): 50.0%
Normalized % Control (JNK2 mRNA; [2]): 25.1%
Normalized % Control (JNK2 mRNA; [3]): 14.2%
% INHIBITION (JNK2 mRNA; [4]): 79.8%
Normalized % Control (JNK2 mRNA; [4]): 20.2%
% INHIBITION (JNK2 mRNA; JNK2 mRNA time course, t=4 h): 88.9%
Normalized % Control (JNK2 mRNA; JNK2 mRNA time course, t=4 h): 11.1%
% INHIBITION (JNK2 mRNA; JNK2 mRNA time course, t=12 h): 78.2%
Normalized % Control (JNK2 mRNA; JNK2 mRNA time course, t=12 h): 21.8%
% INHIBITION (JNK2 mRNA; JNK2 mRNA time course, t=48 h): 57.3%
Normalized % Control (JNK2 mRNA; JNK2 mRNA time course, t=48 h): 42.7%
% INHIBITION (JNK2 mRNA; JNK2 mRNA time course, t=72 h): (0.0) %
Normalized % Control (JNK2 mRNA; JNK2 mRNA time course, t=72 h): 116.8%
% EXPRESSION (JNK2 mRNA; [5]): 11%
Normalized % Control (JNK2 mRNA; [6]): 62.1%
Normalized % Control (JNK2 mRNA; [7]): 31.4%

12561 (antisense dC*dA*dG*dG*dA*dT*dG*dA*dC*dT*dT*dC*dG*dG*dG*dC*dG*dC*dC*dC) [compound 12561]
% EXPRESSION (JNK2 mRNA; [5]): 60%
% INHIBITION (JNK2 mRNA; [8]): 40%

12562 (antisense dG*dC*dT*dC*dT*dC*dC*dC*dA*dT*dG*dA*dT*dG*dC*dA*dA*dC*dC*dC) [compound 12562]
% EXPRESSION (JNK2 mRNA; [5]): 89%
% INHIBITION (JNK2 mRNA; [8]): 11%

12563 (antisense dA*dT*dG*dG*dG*dT*dG*dA*dC*dG*dC*dA*dG*dA*dG*dC*dT*dT*dC*dG) [compound 12563]
% EXPRESSION (JNK2 mRNA; [5]): 22%

12564 (antisense dC*dT*dG*dC*dT*dG*dC*dA*dT*dC*dT*dG*dA*dA*dG*dG*dC*dT*dG*dA) [compound 12564]
% EXPRESSION (JNK2 mRNA; [5]): 28%

12565 (antisense dT*dG*dA*dG*dA*dA*dG*dG*dA*dG*dT*dG*dG*dC*dG*dT*dT*dG*dC*dT) [compound 12565]
% EXPRESSION (JNK2 mRNA; [5]): 19%

12566 (antisense dT*dG*dC*dT*dG*dT*dC*dT*dG*dT*dG*dT*dC*dT*dG*dA*dG*dG*dC*dC) [compound 12566]
% EXPRESSION (JNK2 mRNA; [5]): 42%

12568 (antisense dC*dA*dT*dT*dT*dC*dA*dG*dG*dC*dC*dC*dA*dC*dG*dG*dA*dG*dG*dT) [compound 12568]
% EXPRESSION (JNK2 mRNA; [5]): 20%

12569 (antisense dG*dG*dT*dC*dT*dG*dA*dA*dT*dA*dG*dG*dG*dC*dA*dA*dG*dG*dC*dA) [compound 12569]
% EXPRESSION (JNK2 mRNA; [5]): 13%

12570 (antisense dG*dG*dG*dC*dA*dA*dG*dT*dC*dC*dA*dA*dG*dC*dA*dA*dG*dC*dA*dT) [compound 12570]
% EXPRESSION (JNK2 mRNA; [5]): 24%

14318 (sense GACTTTGGCCTGGCCCGGAC; DNA, all phosphorothioate, methylation of C not given here) [compound 14318]
Normalized % Control (JNK2 mRNA; JNK2 mRNA dose response, 50 nM): 87.1%
Normalized % Control (JNK2 mRNA; [1]): 89.8%
Normalized % Control (JNK2 mRNA; [2]): 92.1%
Normalized % Control (JNK2 mRNA; [3]): 99.6%

14319 (GTGCGCGCGAGCCCGAAATC; DNA, all phosphorothioate, methylation of C not given here) [compound 14319]
Normalized % Control (JNK2 mRNA; JNK2 mRNA dose response, 50 nM): 90.4%
Normalized % Control (JNK2 mRNA; [1]): 93.7%
Normalized % Control (JNK2 mRNA; [2]): 110.2%
Normalized % Control (JNK2 mRNA; [3]): 100.0%

15352 (antisense eG*eT*e[5mC]*e[5mC]*eG*eG*eG*e[5mC]*e[5mC]*eA*eG*eG*e[5mC]*e[5mC]*eA*eA*eA*eG*eT*e[5mC]) [compound 15352]
Normalized % Control (JNK2 mRNA; [6]): 132.4%
Normalized % Control (JNK2 mRNA; [7]): 158.4%

15354 (antisense eGeTe[5mC]e[5mC]eG*dG*dG*dC*dC*dA*dG*dG*dC*dC*eAeAeAeGeTe[5mC]) [compound 15354]
Normalized % Control (JNK2 mRNA; [6]): 38.3%
Normalized % Control (JNK2 mRNA; [7]): 17.1%
inhibition of JNK2 mRNA expression (JNK2 mRNA; chemically modified derivatives of ISIS 12560, 400 nM (text to Table 12)): approximately 80%

15355 (antisense eG*eT*e[5mC]*e[5mC]*eG*eG*eG*e[5mC]*e[5mC]*eA*eG*dG*dC*dC*dA*dA*dA*dG*dT*dC) [compound 15355]
Normalized % Control (JNK2 mRNA; [6]): 61.3%
Normalized % Control (JNK2 mRNA; [7]): 29.1%

15356 (antisense dG*dT*dC*dC*dG*dG*dG*dC*dC*eA*eG*eG*e[5mC]*e[5mC]*eA*eA*eA*eG*eT*e[5mC]) [compound 15356]
Normalized % Control (JNK2 mRNA; [6]): 38.6%
Normalized % Control (JNK2 mRNA; [7]): 11.0%

15357 (antisense GTCCGGGCCAGGCCAAAGTC; wingmer: 5' deoxy phosphorothioate wing, 3' MOE phosphodiester wing, wing lengths not given here) [compound 15357]
Normalized % Control (JNK2 mRNA; [6]): 42.8%
Normalized % Control (JNK2 mRNA; [7]): 13.7%

15358 (antisense eGeTe[5mC]e[5mC]eGeGeGe[5mC]e[5mC]eAeG*dG*dC*dC*dA*dA*dA*dG*dT*e[5mC]) [compound 15358]
Normalized % Control (JNK2 mRNA; [6]): 47.4%
Normalized % Control (JNK2 mRNA; [7]): 29.4%

18254 (antisense eTe[5mC]eAeTeG*dA*dT*dG*dT*dA*dG*dT*dG*dT*d[5mC]*eAeTeAe[5mC]eA) [compound 18254]
% INHIBITION (rat JNK2 mRNA): 80%
% EXPRESSION (rat JNK2 mRNA): 20%

GTC-CGG-GCC-AGG-CCA-AAG-TC (GTCCGGGCCAGGCCAAAGTC; chemistry not given here) [ISIS 12560]
% INHIBITION (JNK2 mRNA; JNK2 mRNA time course, t=12 h): greater than or equal to 80%
% INHIBITION (JNK2 mRNA; JNK2 mRNA time course, t=48 h): greater than or equal to 60%

From US20040029823A1, “Antisense oligonucleotide compositions and methods for the modulation of JNK proteins” (priority 1997, published 2004)
